Four molecules from ChEMBL document CHEMBL1201862, “PubChem BioAssay data set” (2004) can be followed below.

The nature of series [1]: viability of PTEN-deleted HCT116 cells – cell-based, HCT116 PTEN knockout, dose response (AID 1047).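 Note: HCT116 colon tumor cells with PTEN knocked out; cells exposed to compound for 60 hours before readout; potency for loss of cell viability measured by luminescence.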 The series is classed as functional.
Series [2] can be described thus: viability of HCT116 lacking mutant beta-catenin – cell-based, human colon tumor, dose response (AID 1045).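 Note: HCT116 colon tumor cells with beta catenin knocked out; cells exposed to compound for 60 hours.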 The series is classed as functional.
The next series has as its target Cytochrome P450 2C19 (Homo sapiens, UniProt P33261). The series is described as follows: Cytochrome panel assay with activity outcomes. Panel member name: p450-cyp2c19 Compounds with AC50 equal or less than 10 uM are considered active. The series is classed as functional. The conditions noted are these: read-out: AC50.
A further series deals with Cytochrome P450 3A4 (Homo sapiens, UniProt P08684).
Series [3] addresses G-protein coupled receptor 55 (Homo sapiens, UniProt Q9Y2T6). Put plainly: inhibition of LPI-stimulated GPR55 beta-arrestin translocation – imaging, U2OS, beta-arrestin-GFP, LPI agonist, primary screen (AID 2013).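 Note: antagonist potency measured as reduced agonist-driven arrestin aggregation.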 The series is classed as functional.
Series [4] addresses T1, Cannabinoid receptor 1 (Homo sapiens, UniProt P21554). Put plainly: SAR analysis of antagonists of the Cannabinoid Receptor 1 using an Image-Based Assay - Set 2. [Related pubchem assays (depositor defined):AID2013, AID2026]. It counts as functional.
The target in series [5] is T2, G-protein coupled receptor 35 (Homo sapiens, UniProt Q9HC97). Put plainly: SAR analysis of Agonists of the GPR35 Receptor using an Image-Based Assay - Set 2. [Related pubchem assays (depositor defined):AID2013, AID2026]. It counts as functional.
Series [6] concerns the target T3, Cannabinoid receptor 2 (Homo sapiens, UniProt P34972). The series is described as follows: SAR analysis of antagonists of the Cannabinoid Receptor 2 using an Image-Based Assay. [Related pubchem assays (depositor defined):AID2013, AID2026]. The series is classed as functional.
The target in series [7] is T1, Cannabinoid receptor 1. Put plainly: SAR analysis of agonists of the Cannabinoid Receptor 1 using an Image-Based Assay - Set 2. [Related pubchem assays (depositor defined):AID2013, AID2026]. The series is classed as functional.
For series [8], the target named is T2, G-protein coupled receptor 35. The series is described as follows: SAR analysis of Antagonists of the GPR35 Receptor using an Image-Based Assay - Set 3. [Related pubchem assays (depositor defined):AID2013, AID2026]. The series is classed as functional.
The target of series [9] is T3, Cannabinoid receptor 2. The series is described as follows: SAR analysis of agonists of the Cannabinoid Receptor 2 using an Image-Based Assay. [Related pubchem assays (depositor defined):AID2013, AID2026]. It counts as functional.
Series [10] deals with T4, Replicative DNA helicase DnaB (Mycobacterium tuberculosis, UniProt P9WMR3).
T4 sequence (P9WMR3 whole entry): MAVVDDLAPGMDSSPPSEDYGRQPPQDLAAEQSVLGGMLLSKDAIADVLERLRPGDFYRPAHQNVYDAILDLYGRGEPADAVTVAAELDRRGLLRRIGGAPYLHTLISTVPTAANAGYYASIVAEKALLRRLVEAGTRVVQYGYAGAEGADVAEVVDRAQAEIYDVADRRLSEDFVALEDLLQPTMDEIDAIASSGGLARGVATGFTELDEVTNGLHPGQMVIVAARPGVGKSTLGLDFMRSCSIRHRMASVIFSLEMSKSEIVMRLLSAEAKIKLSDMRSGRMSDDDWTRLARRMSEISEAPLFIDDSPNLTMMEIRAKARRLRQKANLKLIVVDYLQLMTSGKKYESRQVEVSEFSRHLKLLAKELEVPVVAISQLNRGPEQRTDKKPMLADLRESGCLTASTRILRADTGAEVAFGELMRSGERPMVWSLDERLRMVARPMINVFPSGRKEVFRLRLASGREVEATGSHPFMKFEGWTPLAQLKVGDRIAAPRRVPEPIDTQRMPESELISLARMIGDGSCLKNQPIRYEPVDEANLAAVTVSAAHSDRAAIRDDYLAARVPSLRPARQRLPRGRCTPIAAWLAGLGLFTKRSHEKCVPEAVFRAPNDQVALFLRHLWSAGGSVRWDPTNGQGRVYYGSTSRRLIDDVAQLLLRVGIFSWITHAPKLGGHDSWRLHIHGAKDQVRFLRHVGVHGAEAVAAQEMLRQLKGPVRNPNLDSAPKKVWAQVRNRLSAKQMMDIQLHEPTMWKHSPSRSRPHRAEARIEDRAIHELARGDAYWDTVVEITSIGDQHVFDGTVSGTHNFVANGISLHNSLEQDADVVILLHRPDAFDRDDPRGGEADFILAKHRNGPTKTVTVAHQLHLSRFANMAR
The series is described as follows: DnaB intein splicing inhibitors, dose response, biochemical, cell-free fluorescence (AID 449749). It counts as functional.

For the next series, the target named is T5, Protein RecA (Mycobacterium tuberculosis, UniProt P9WHJ3).
T5 sequence (P9WHJ3 whole entry): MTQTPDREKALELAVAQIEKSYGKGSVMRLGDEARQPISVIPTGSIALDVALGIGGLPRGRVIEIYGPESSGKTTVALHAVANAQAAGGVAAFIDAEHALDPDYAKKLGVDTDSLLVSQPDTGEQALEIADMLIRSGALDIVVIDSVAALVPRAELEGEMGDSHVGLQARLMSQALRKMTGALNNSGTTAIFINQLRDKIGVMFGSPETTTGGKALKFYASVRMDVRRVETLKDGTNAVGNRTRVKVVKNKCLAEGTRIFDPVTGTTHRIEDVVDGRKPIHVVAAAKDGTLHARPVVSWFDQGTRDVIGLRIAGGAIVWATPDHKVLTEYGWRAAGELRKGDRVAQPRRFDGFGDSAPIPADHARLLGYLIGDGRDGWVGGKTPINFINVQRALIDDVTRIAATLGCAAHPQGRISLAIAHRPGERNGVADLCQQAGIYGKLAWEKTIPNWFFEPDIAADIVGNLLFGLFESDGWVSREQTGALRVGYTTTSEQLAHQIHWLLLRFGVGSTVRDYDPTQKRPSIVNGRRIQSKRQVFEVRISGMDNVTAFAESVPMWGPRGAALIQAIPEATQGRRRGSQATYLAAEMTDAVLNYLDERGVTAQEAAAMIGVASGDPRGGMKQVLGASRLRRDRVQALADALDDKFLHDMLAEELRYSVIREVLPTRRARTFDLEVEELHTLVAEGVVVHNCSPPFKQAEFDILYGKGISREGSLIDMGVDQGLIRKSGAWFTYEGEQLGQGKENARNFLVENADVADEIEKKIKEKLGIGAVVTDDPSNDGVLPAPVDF
The series is described as follows: Fluorescence Cell-Free Homogeneous Dose Retest to Identify Inhibitors of RecA-Intein Splicing Activity. [Related pubchem assays (depositor defined):AID2097, AID2223, AID489010, AID492950]. It counts as functional.

The target of series [11] is Sphingosine 1-phosphate receptor 1 (Homo sapiens, UniProt P21453). The series is described as follows: Fluorescence-based counterscreen assay for S1P4 agonists: Cell-based dose response high throughput screening assay to identify agonists of the Sphingosine 1-Phosphate Receptor 1 (S1P1). [Related pubchem assays (depositor defined):AID1509, AID1523, AID1801, AID463107, AID463118, AID463119, AID463122, AID463123, AID463129, AID463225, AID504400, AID504460]. It counts as functional. For orientation: Counterscreens check selectivity or assay interference.

Series [12] deals with Sphingosine 1-phosphate receptor 4 (Homo sapiens, UniProt O95977). Put plainly: Fluorescence dose response cell-based high throughput screening assay for agonists of the Sphingosine 1-Phosphate Receptor 4 (S1P4). [Related pubchem assays: 1509 (Primary screen.), 1523 (Confirmation screen in triplicates.)]. It counts as functional.

SMILES strings stand for the structures. Activity calls are given as the source filed them.

T1 sequence (P21554 whole entry): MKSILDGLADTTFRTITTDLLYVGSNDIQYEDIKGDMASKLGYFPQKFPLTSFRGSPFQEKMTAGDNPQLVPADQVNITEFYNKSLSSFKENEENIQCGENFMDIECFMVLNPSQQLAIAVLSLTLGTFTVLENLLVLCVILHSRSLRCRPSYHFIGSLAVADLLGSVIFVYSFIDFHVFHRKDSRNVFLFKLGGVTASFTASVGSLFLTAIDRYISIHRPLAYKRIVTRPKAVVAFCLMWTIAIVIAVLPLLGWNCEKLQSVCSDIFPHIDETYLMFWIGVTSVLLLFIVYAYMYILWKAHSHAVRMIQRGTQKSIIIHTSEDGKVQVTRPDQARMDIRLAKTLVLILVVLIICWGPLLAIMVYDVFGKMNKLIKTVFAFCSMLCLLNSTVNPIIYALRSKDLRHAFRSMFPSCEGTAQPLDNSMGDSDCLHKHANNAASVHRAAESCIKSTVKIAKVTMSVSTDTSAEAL
T2 sequence (Q9HC97 whole entry): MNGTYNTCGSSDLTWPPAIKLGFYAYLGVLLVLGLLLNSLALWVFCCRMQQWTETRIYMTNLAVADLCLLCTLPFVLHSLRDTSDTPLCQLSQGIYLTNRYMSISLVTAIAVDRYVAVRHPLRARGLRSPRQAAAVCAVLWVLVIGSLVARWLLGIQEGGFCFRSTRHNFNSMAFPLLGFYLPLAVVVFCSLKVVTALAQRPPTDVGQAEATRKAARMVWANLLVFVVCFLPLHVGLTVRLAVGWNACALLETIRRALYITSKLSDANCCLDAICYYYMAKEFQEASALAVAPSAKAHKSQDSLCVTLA
Cytochrome P450 3A4, sequence (P08684 whole entry): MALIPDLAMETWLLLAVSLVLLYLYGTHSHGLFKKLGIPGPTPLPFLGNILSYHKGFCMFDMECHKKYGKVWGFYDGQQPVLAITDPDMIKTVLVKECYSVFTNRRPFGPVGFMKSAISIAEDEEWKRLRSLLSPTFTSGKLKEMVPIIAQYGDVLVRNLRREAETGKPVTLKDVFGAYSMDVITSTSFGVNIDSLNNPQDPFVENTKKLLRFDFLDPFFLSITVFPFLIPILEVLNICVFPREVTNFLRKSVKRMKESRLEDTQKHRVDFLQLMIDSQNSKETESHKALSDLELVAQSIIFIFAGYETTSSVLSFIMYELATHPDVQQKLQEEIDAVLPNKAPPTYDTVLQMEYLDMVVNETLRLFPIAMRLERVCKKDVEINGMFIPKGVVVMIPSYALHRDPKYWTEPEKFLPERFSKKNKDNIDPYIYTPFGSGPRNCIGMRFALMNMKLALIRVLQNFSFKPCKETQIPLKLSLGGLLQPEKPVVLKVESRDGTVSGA
Cytochrome P450 2C19, sequence (P33261 whole entry): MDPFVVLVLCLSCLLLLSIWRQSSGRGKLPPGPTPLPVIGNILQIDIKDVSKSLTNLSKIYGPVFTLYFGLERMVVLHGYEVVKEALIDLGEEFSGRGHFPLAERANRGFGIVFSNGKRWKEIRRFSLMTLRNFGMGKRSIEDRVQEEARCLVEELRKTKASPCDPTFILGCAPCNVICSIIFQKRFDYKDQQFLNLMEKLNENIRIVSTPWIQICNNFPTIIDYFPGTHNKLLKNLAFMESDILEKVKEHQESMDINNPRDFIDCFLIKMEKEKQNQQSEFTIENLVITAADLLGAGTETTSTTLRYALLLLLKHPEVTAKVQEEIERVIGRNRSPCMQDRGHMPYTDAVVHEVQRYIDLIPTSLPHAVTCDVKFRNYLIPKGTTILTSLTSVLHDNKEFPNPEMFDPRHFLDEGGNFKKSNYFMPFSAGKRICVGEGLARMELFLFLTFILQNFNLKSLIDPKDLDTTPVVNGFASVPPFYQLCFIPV
T3 sequence (P34972 whole entry): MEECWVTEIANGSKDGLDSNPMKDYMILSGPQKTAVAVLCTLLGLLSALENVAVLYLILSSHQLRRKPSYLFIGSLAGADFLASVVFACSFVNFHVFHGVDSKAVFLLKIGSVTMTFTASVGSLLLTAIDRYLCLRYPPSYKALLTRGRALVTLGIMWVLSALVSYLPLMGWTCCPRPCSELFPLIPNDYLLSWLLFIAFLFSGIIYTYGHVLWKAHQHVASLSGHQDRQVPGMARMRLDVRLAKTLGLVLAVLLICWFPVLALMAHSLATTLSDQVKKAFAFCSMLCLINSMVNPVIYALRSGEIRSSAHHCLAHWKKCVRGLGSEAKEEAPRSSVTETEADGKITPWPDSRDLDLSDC
Sphingosine 1-phosphate receptor 4, sequence (O95977 whole entry): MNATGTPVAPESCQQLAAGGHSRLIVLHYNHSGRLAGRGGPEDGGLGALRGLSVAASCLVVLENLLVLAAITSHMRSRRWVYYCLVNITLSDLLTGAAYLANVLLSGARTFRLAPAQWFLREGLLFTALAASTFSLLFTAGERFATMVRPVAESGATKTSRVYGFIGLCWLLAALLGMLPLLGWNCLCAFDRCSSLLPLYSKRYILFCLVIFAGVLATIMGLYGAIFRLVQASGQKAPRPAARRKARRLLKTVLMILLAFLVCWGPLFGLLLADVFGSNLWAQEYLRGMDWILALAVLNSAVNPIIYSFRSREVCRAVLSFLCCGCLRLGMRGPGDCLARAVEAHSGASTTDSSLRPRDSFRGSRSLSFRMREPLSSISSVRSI
Sphingosine 1-phosphate receptor 1, sequence (P21453 whole entry): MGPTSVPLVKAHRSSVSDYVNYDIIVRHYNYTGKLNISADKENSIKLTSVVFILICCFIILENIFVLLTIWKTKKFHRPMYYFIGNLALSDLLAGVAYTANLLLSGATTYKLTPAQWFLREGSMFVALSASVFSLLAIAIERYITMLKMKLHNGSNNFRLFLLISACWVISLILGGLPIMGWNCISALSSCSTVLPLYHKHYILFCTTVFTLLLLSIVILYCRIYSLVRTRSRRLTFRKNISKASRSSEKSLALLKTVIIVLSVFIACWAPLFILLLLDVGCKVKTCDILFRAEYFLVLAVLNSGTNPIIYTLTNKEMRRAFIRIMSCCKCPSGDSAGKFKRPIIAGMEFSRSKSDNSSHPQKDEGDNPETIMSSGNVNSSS
G-protein coupled receptor 55, sequence (Q9Y2T6 whole entry): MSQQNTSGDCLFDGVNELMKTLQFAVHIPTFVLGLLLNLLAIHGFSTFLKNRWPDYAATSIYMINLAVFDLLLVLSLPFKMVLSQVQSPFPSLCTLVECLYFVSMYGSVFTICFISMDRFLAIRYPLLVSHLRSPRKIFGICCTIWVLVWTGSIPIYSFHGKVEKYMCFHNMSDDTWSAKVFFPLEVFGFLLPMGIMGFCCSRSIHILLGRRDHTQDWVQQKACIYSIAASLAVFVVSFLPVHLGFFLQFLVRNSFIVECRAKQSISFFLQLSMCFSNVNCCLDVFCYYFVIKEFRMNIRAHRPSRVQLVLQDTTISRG

Consider `Cc1sc(NC(=O)c2ccc(OCC(C)C)cc2)c(C(N)=O)c1-c1ccc(Cl)cc1Cl`, for which the EC50 in series [1] is 18.5 µM (active); in [2], 48.2 µM (active). The AC50 is 1.78 µM (inconclusive) at Cytochrome P450 2C19 and “inconclusive” at Cytochrome P450 3A4.
`O=C(c1ccco1)N1CCC2(CC1)CCN(c1ccccn1)CC2`: the half-maximal activity concentration (AC50) was 31.6 µM (inconclusive) on Cytochrome P450 2C19 and “inconclusive” on Cytochrome P450 3A4.
`O=C(c1ccco1)N1CCN(c2nc(C3CC3)nc3sc4c(c23)CCCC4)CC1`: the IC50 is 1.74 µM (active) in series [3], > 32 µM (inactive) on Cannabinoid receptor 1 [4], > 32 µM (inactive) on Cannabinoid receptor 2 [6] and > 32 µM (inactive) in [8]. In addition, the EC50 was > 32 µM (inactive) in series [5], > 32 µM (inactive) on Cannabinoid receptor 1 [7], > 32 µM (inactive) on Cannabinoid receptor 2 [9] and 29.6 µM (active) at Protein RecA. Further, the AC50 in series [10] is 2.35 µM (active).
Take `COc1ccc(C2CC(c3cccs3)=NN2c2ccccc2)cc1` (configuration not stated): the EC50 in series [11] is 5.45 µM (active); in [12], 12.3 µM (not active).

Broadly, the EC50 is the concentration at which the effect is half-maximal. By AC50 is commonly meant the midpoint of the concentration-response curve, whichever way the signal moves. Usually IC50 stands for the concentration that inhibits the measured activity by half.
